Measurements from US5594009A, “Fused pyrrolocarbazoles” (priority 1995, dated 1997).

What was measured:
[1] = tested on: choline acetyltransferase (ChAT) activity in dissociated rat embryonic spinal cord culture; test: Spinal Cord ChAT Activity Assay; type: cell-based; conditions: ChAT measured after 48 hours
AT-2 cells = test: Inhibition of Growth of Prostate Cancer Cell Line (MTS assay); type: cell-based; conditions: 72 h; 3 days, MTS; read-out: AT-2 cell growth IC50
Method: AT-2 cells are a prostate cancer cell sub-line derived from the Dunning H tumor, graciously provided to us by Dr. John Isaacs (John Hopkins, M. D.). Unlike the Dunning H tumor cells, AT-2 cells can be grown in vitro.
Methods: At-2 cells ([…]) were plated on tissue culture plastic in 96-well plates in the presence of RPMI-1640 medium containing 10% fetal calf serum, 250 nM dexamethasone, 2 mM glutamine, 1 mM sodium pyruvate, and penicillin/streptomycin antibiotics. The next day, compounds were added at 4 concentrations (10, 1, 0.1, 0.01 μM) to determine the approximate IC50 range. Cultures were assayed 3 days later for cell number using the MTS [(3-(4,5-dimethylthiazol-2-yl)-5-(3-carboxymethoxyphenyl)-2-(4-sulfophenyl)-2H-tetrazolium, inner salt)] assay. The MTS assay (purchased as a kit from Promega) measures the formation of an aqueous soluble formazan (detected by a plate reader at 490nm) produced by the bioreduction of a tetrazolium compound (MTS) in metabolically active cells via mitochondrial succinate dehydrogenase. After determining linearity of the substrate incubation time over a range of cell plating densities, the amount of product measured is directly proportional to cell number. MTS (333 ug/ml) and 25 μM phenazine methosulfate are mixed and added directly to the culture medium, and incubated at 37° C. in the 5% CO2 /95% air incubator for 0.5-4 h. Absorbance of the product at 490 nm is read on the BIO-TEK plate reader. Background values were obtained from wells containing culture medium with substrate solution, but no cells. In addition, values were also obtained from wells containing cells plated at day 0 and assayed on the day compound was added (day 1) in order to determine the number of cells at the time compound was added. After the initial dose-finding experiment was completed, subsequent experiments were set up so that there were 3 or more concentrations near the predicted IC50.

IC50 (AT-2 cells): 4.6 µM
SMILES: O=C1NCc2c1c1c(c3[nH]c4ccccc4c23)Cc2ccccc2-1 [Compound I-2]
Spinal Cord ChAT Activity, % of Control, untreated cultures [1]: 160 % of Control
